Measurements from patent US12678477B2, “Antiviral peptoid compositions” (priority 2019, dated 2026).
Where “and” joins values, the source holds several entries; their conditions need not be identical. Equal values may be shown once.

What was measured:
[1] = tested on: SARS-CoV-2 Isolate USA-WA1/2020; test: SARS-CoV-2 plaque assay in Vero E6 cells (virus pre-incubated with peptoid); assay type: cell-based; settings: for % control: plaque count relative to control; for Count (plaques): virus-peptoid incubated two hours at 37° C., Vero E6
HSV = settings: acyclovir treatment, given orally; cited from earlier work

Row | Molecule | % control ([1]; 5 μg/ml) | Count (plaques) ([1]; 5 μg/ml) | % control ([1]; 10 μg/ml) | Count (plaques) ([1]; 10 μg/ml) | % control ([1]; 20 μg/ml) | Count (plaques) ([1]; 20 μg/ml) | % control ([1]; 40 μg/ml) | Count (plaques) ([1]; 40 μg/ml) | reduction of transmission (HSV)
1 | H-((NLys-Nspe(p-Br)-Nspe(p-Br))2—NH2 [MXB-004] | 86.36% and 102.27% | 38 and 45 | 136.36% and 134.09% | 60 and 59 | 54.55% and 56.82% | 24 and 25 | 15.91% | 7 | 
2 | Nc1nc2c(ncn2COCCO)c(=O)[nH]1 [acyclovir] |  |  |  |  |  |  |  |  | 50%
3 | H-(NLys-Nspe-Nspe)4-NH2 [MXB-001] | 118.18% and 113.64% | 52 and 50 | 100% and 118.18% | 44 and 52 | 125% | 55 | 104.55% | 46 | 
